Test results: US12570614B2, “Phenyl amino pyrimidine compounds and uses thereof” (GlaxoSmithKline LLC, priority 2007, dated 2026)

Columns and labels:
CTLL2 = experiment: Cellular screening, CTLL2 cells (Alamar Blue); type: cell-based; conditions: Mus musculus, CTLL-2; 48-72 hr incubation; read-out: CTLL2_IC50_μM
[1] = tested on: pYSTAT5 in erythroid cells (CD45lo, CD71hi) from bone marrow; experiment: Ex vivo pYSTAT5 flow cytometry in erythroid cells from JAK2 V617F positive patients; type: cell-based, human; conditions: 3 μM to 0.0041 μM, one hour, erythropoietin stimulated 10 minutes, patient bone marrow
Text: To assess the activity of small molecule inhibitors of JAK2 an assay has been developed to quantify the activity of the JAK-STAT pathway by measuring the phosphorylation status of the downstream protein STAT5. After ligand binding, a haemopoietic cytokine receptor undergoes conformational change activating associated JAK2 protein. Activated JAK2 then phosphorylates the intracellular portion of the receptor forming binding sites for the recruitment of intracellular signaling proteins. […]
Results of flow cytometry experiments are presented in two different formats (FIG. 7C). The pYSTAT5 positive population is quantitated as the percentage of cells in the upper right quadrant of the dot plot graphs (FIGS. 7A and B). […]
The second format of presentation is presented in the right panel of FIG. 7C. This measurement represents the mean fluorescence intensity in the pYSTAT5 channel and includes both erythroid cells that are stimulated by EPO and those that are not. This is an absolute value measurement of fluorescence and there was variability between these values between the three individuals tested. As the concentration of inhibitor is decreased the mean fluorescence of the total erythroid population moved towards the value of the positive control.

BaF3 wild-type cells = experiment: Cellular screening, BaF3 wild-type cells (Alamar Blue); type: cell-based; conditions: Mus musculus, 48-72 hr incubation, read-out: BAF3wt_IC50_μM
Outline: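 Parental BaF3 cells in DMEM with 10% FCS and 10% WEHI 3B conditioned medium were seeded at 50,000–200,000 cells/mL (1.1× final). Compounds were added as 10× solutions, with dilution plates prepared at 20 μM.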

[2] = tested on: STAT5 phosphorylation in HEL 92.1.7 cells; experiment: Western blot of STAT5 phosphorylation in HEL cells; type: cell-based, human; conditions: 2 hours
Description: The Western blots were treated with a STAT5 phosphospecific antibody and exposed to film for 5 minutes (top blot) and 1 minute (middle blot).
The human erythroleukemic cell line HEL 92.1.7 was routinely maintained in RPMI 1640 media containing 10% FCS. The day before the experiment, cells were washed twice in PBS, resuspended in RPMI 1640 media containing 1% FCS, and cultured overnight.
Cells were then placed on ice and washed twice in ice-cold PBS. Washed cell pellets were snap-frozen in liquid nitrogen and stored at −80° C.
Cell pellets were lysed on ice in RIPA buffer, and lysates clarified by centrifugation (20,000×g, 4° C., 5 min). The protein concentration of lysates was determined by the Bradford method, and equal amounts of protein (60 μg/lane) were separated by SDS-PAGE. Protein was then transferred to PVDF, and Western blotting performed using an antibody that specifically recognizes STAT5 phosphorylated at tyrosine 694. The membrane was then stripped and reprobed with an antibody that recognizes total STAT5 protein.

[3] = tested on: BaF3 TELJAK cells (BafT_J2); experiment: Cellular screening, BaF3 TELJAK2 cells (Alamar Blue); type: cell-based; conditions: Mus musculus, BaF3; 48-72 hr incubation; read-out: BafT_J2_IC50_μM

- IC50 (BaF3 wild-type cells): < 5 µM
- IC50 [3]: < 1 µM
Compound: N#CCNC(=O)c1ccc(-c2ccnc(Nc3ccc(N4CCOCC4)cc3)n2)cc1 [Compound 3, N-(cyanomethyl)-4-(2-(4-morpholinophenyl-amino)pyrimidin-4-yl)benzamide]
- IC50 (CTLL2): < 5 µM
- effect on pYSTAT5 (STAT5 phosphorylation) in erythroid cells [1]: dose-dependent reduction
- effect on pYSTAT5 (STAT5 phosphorylation) in erythroid cells ([1]; listed as compound 3): dose-dependent increase in inhibition
- effect on STAT5 phosphorylation (Western blot) [2]: decrease in STAT5 phosphorylation
